Laboratory results reported in patent publication US20130266665A1, “NANO[…] DISEASE THERAPY” (priority 2012, published 2013).

Legend:
Format in all cases: cell-based, human
OVCAR5 cells = experiment: AFM cell stiffness (Young's modulus, peak indentation depth) of cisplatin-sensitive OVCAR5 cells; details: for Young's modulus E (mean±SEM), peak 2 / Young's modulus E (mean±SEM), peak 1: about 24 hours
Description: (§1) SKOV3 (American Type Culture Collection; Manassas, Va.) and OVCAR5 cells were maintained in Dulbecco's Modified Eagle's Medium supplemented with about 10% fetal bovine serum. SKOV3-CisR and OVCAR5-CisR cells were established by exposing the parental SKOV3 and OVCAR5 cell lines, respectively, to increasing concentrations of cisplatin over 12 months. OVCAR5-CisR cells are about 20- and SKOV3-CisR cells are about 8-fold more resistant to cisplatin compared to their syngeneic cisplatin sensitive counterparts. Cells were grown at about 37° C. in a humidified atmosphere containing about 5% CO2 and about 95% air.
(§2) Cells were treated with about 1 or about 5 μg/mL cisplatin (Sigma-Aldrich, St. […]
(§3) A protocol was established to exclude unhealthy or apoptotic cells from measurements by staining cells with AnnexinV (Sigma-Aldrich) as an indicator of apoptosis. Stained cells are dead or apoptotic, and typically float away and are no longer attached to a surface. Cells that stained positive for AnnexinV were excluded from AFM analysis. Measurements were conducted using a Catalyst AFM (Bruker Instruments, Santa Barbara, Calif.) with a combined inverted optical/confocal microscope (Zeiss Corp., Thornwood, N.Y.). This combination permits lateral positioning of an AFM tip over the cell center with submicron precision. AFM images and mechanical measurements were collected in contact mode using sharpened silicon nitride cantilevers with experimentally determined spring constants of about 0.02 N/m and a tip radius of less than about 20 nm. Mechanical measurements were obtained at about 37° C. with force measurements recorded at a pulling rate of about 1 Hz. Force-displacement curves were recorded for determination of Young's modulus values. Conversion of force-displacement curves to force-indentation curves allows the determination of the local cell surface elasticity or stiffness (Young's modulus, E). The measurement outcomes include averaged E values. Nanoscope files were converted to Igor. 6.0 (Wavemetrix) and used to generate two-dimensional (2D) stiffness matrix of the cell populations, allowing more precise determination of localized cell stiffness. AFM measurements were obtained in at least 60 cells in three different experiments. The AFM tip was precisely positioned (within micron range) on top of the nucleus using motorized stage and inverted optical view of the combined confocal-AFM microscope.
(§4) Data were expressed as mean±standard error of mean (SEM). Statistical significance was identified by Student's t-test or one-way analysis of variance (Origin 8.0, OriginLab Corporation, Northmpton, Mass.) for the difference among treated pairs.

OVCAR5-CisR cells [1] = experiment: AFM cell stiffness (Young's modulus, peak indentation depth) of cisplatin-resistant OVCAR5-CisR cells
Description: as §1, §2, §3, §4

SKOV3-CisR cells = experiment: Resistance to cisplatin of SKOV3-CisR cells versus parental SKOV3; details: SKOV3-CisR vs SKOV3
Description: as §1

OVCAR5-CisR cells [2] = experiment: Resistance to cisplatin of OVCAR5-CisR cells versus parental OVCAR5; details: OVCAR5-CisR vs OVCAR5
Description: as §1

[3] = about 5 μM cytochalasin D alone

| Structure (SMILES) | Young's modulus E (mean±SEM), peak 2 (OVCAR5 cells; about 1 μg/mL cisplatin) | Young's modulus E (mean±SEM), peak 1 (OVCAR5 cells; about 1 μg/mL cisplatin, untreated E=0.64±0.03 kPa) | Young's modulus E (mean±SEM), peak 1 (OVCAR5 cells; about 5 μg/mL cisplatin) | Young's modulus E (mean±SEM), peak 2 (OVCAR5 cells; about 5 μg/mL cisplatin) | peak indentation depth (OVCAR5 cells; cisplatin 1 μg/mL, untreated 1.2±0.04 μm) | peak indentation depth (OVCAR5 cells; cisplatin 5 μg/mL) | difference in cell stiffness between untreated and cisplatin-treated cells (OVCAR5-CisR cells [1]; cisplatin 5 μg/mL, P=0.45) | localized peak indentation (OVCAR5-CisR cells [1]; cisplatin 5 μg/mL, untreated 0.5±0.06 μm) | Young's modulus E, peak 1 (OVCAR5-CisR cells [1]; cisplatin 5 μg/mL, untreated 1.0±0.03 kPa) | Young's modulus E, peak 2 (OVCAR5-CisR cells [1]; cisplatin 5 μg/mL, untreated 1.84±0.1 kPa) | fold more resistant to cisplatin compared to syngeneic cisplatin sensitive counterpart (SKOV3-CisR cells) | fold more resistant to cisplatin compared to syngeneic cisplatin sensitive counterpart (OVCAR5-CisR cells [2]) | Young's modulus E (OVCAR5 cells; [3]) | Young's modulus E (OVCAR5-CisR cells [1]; [3]) |
| --- | --- | --- | --- | --- | --- | --- | --- | --- | --- | --- | --- | --- | --- | --- |
| N.N.[Cl][Pt][Cl] [cisplatin, cis-diamminedichloridoplatinum(II)] | 1.23±0.04 kPa | 0.53±0.01 kPa | 0.65±0.01 kPa | 1.28±0.06 kPa | 0.7±0.03 μm | 0.5±0.03 μm | no significant difference | 0.5±0.04 μm | 0.97±0.01 kPa | 1.88±0.05 kPa | 8 fold | 20 fold |  |  |
| C=C1[C@@H](C)[C@H]2[C@H](Cc3ccccc3)NC(=O)[C@]23[C@H](OC(C)=O)/C=C/[C@@](C)(O)C(=O)[C@@H](C)C/C=C/[C@H]3[C@@H]1O [cytochalasin D] |  |  |  |  |  |  |  |  |  |  |  |  | 0.34±0.02 kPa | 0.45±0.01 kPa |
